Measured values: the NIST ThermoML archive (doi:10.1016/j.tca.2008.05.004)
Several values for one entry are separate records, joined by “and”; a condition that tells them apart may be missing. Equal entries are not always repeated.

Experiment: molar heat capacity at constant pressure
Details: 101.33 kPa, Crystal, Small (less than 1 g) adiabatic calorimetry

O=P([O-])([O-])[O-].[La+3] [lanthanum orthophosphate]
Details	molar heat capacity at constant pressure
2 K	0.00122 J/K/mol
4 K	0.01153 J/K/mol
6 K	0.03674 J/K/mol
8 K	0.08437 J/K/mol
10 K	0.1669 J/K/mol
12 K	0.2994 J/K/mol
14 K	0.4971 J/K/mol
16 K	0.7738 J/K/mol
18 K	1.141 J/K/mol
20 K	1.605 J/K/mol
25 K	3.201 J/K/mol
25.03 K	3.418 J/K/mol
25.8 K	3.691 J/K/mol
26.57 K	3.997 J/K/mol
27.34 K	4.269 J/K/mol
28.12 K	4.62 J/K/mol
28.89 K	4.94 J/K/mol
29.68 K	5.294 J/K/mol
30 K	5.306 J/K/mol
30.46 K	5.695 J/K/mol
31.24 K	6.098 J/K/mol
32.03 K	6.511 J/K/mol
32.86 K	6.925 J/K/mol
33.65 K	7.346 J/K/mol
34.44 K	7.659 J/K/mol
35 K	7.89 J/K/mol
35.24 K	8.049 J/K/mol
36.04 K	8.576 J/K/mol
36.84 K	9.023 J/K/mol
37.64 K	9.523 J/K/mol
38.44 K	9.994 J/K/mol
39.25 K	10.48 J/K/mol
40 K	10.82 J/K/mol
40.05 K	10.95 J/K/mol
40.86 K	11.44 J/K/mol
41.67 K	11.92 J/K/mol
42.48 K	12.4 J/K/mol
43.29 K	12.88 J/K/mol
44.1 K	13.34 J/K/mol
44.92 K	13.87 J/K/mol
45 K	13.97 J/K/mol
45.76 K	14.39 J/K/mol
48.2 K	16.03 J/K/mol
49.02 K	16.52 J/K/mol
49.84 K	17.11 J/K/mol
50 K	17.23 J/K/mol
50.65 K	17.64 J/K/mol
51.47 K	18.19 J/K/mol
52.29 K	18.72 J/K/mol
53.11 K	19.27 J/K/mol
53.93 K	19.79 J/K/mol
54.75 K	20.27 J/K/mol
55.57 K	20.78 J/K/mol
56.4 K	21.36 J/K/mol
57.22 K	21.86 J/K/mol
58.04 K	22.41 J/K/mol
58.89 K	22.97 J/K/mol
59.72 K	23.49 J/K/mol
60 K	23.73 J/K/mol
60.54 K	24.01 J/K/mol
61.37 K	24.55 J/K/mol
62.2 K	25.1 J/K/mol
63.03 K	25.6 J/K/mol
63.86 K	26.14 J/K/mol
64.69 K	26.66 J/K/mol
65.52 K	27.24 J/K/mol
66.35 K	27.76 J/K/mol
67.19 K	28.22 J/K/mol
68.02 K	28.62 J/K/mol
68.86 K	29.07 J/K/mol
69.7 K	29.48 J/K/mol
70 K	29.93 J/K/mol
70.93 K	30.26 J/K/mol
72.58 K	31.21 J/K/mol
73.58 K	31.56 J/K/mol
74.82 K	32.17 J/K/mol
76.07 K	33.31 J/K/mol
77.32 K	33.78 J/K/mol
78.55 K	34.74 J/K/mol
80 K	35.68 J/K/mol
80.58 K	36.06 J/K/mol
82.23 K	36.9 J/K/mol
83.88 K	37.58 J/K/mol
85.53 K	38.39 J/K/mol
87.18 K	39.57 J/K/mol
88.83 K	40.58 J/K/mol
90 K	40.96 J/K/mol
90.48 K	41.33 J/K/mol
92.13 K	42.17 J/K/mol
93.78 K	42.97 J/K/mol
95.43 K	43.79 J/K/mol
97.08 K	44.53 J/K/mol
100 K	45.82 J/K/mol
101.86 K	46.91 J/K/mol
102.42 K	47.17 J/K/mol
104.27 K	47.95 J/K/mol
104.88 K	48.25 J/K/mol
106.71 K	49.05 J/K/mol
107.34 K	49.42 J/K/mol
109.16 K	50.14 J/K/mol
109.8 K	50.46 J/K/mol
110 K	50.3 J/K/mol
111.6 K	51.16 J/K/mol
112.25 K	51.55 J/K/mol
114.04 K	52.08 J/K/mol
114.7 K	52.52 J/K/mol
116.47 K	53.12 J/K/mol
117.16 K	53.55 J/K/mol
119.61 K	54.49 J/K/mol
120 K	54.48 J/K/mol
122.06 K	55.51 J/K/mol
124.51 K	56.3 J/K/mol
126.96 K	57.27 J/K/mol
129.4 K	58.21 J/K/mol
130 K	58.4 J/K/mol
131.85 K	59.09 J/K/mol
134.29 K	59.99 J/K/mol
136.73 K	60.84 J/K/mol
139.17 K	61.67 J/K/mol
140 K	62.1 J/K/mol
141.61 K	62.6 J/K/mol
144.05 K	63.49 J/K/mol
146.46 K	64.31 J/K/mol
148.9 K	65.12 J/K/mol
150 K	65.6 J/K/mol
151.33 K	65.92 J/K/mol
153.76 K	66.8 J/K/mol
156.18 K	67.59 J/K/mol
158.61 K	68.21 J/K/mol
160 K	68.93 J/K/mol
161.03 K	69.15 J/K/mol
163.45 K	69.96 J/K/mol
165.87 K	70.75 J/K/mol
168.29 K	71.39 J/K/mol
170 K	72.09 J/K/mol
170.7 K	72.25 J/K/mol
173.11 K	73.03 J/K/mol
175.52 K	73.72 J/K/mol
177.92 K	74.42 J/K/mol
180 K	75.12 J/K/mol
180.31 K	75.07 J/K/mol
182.7 K	75.83 J/K/mol
185.04 K	76.53 J/K/mol
187.44 K	77.24 J/K/mol
189.83 K	77.9 J/K/mol
190 K	78.01 J/K/mol
192.21 K	78.51 J/K/mol
199.36 K	80.46 J/K/mol
200 K	80.78 J/K/mol
202.14 K	81.27 J/K/mol
205.3 K	82.08 J/K/mol
208.46 K	82.89 J/K/mol
210 K	83.44 J/K/mol
211.61 K	83.64 J/K/mol
214.75 K	84.46 J/K/mol
217.89 K	85.24 J/K/mol
220 K	85.98 J/K/mol
220.27 K	86.55 J/K/mol
223.51 K	87.38 J/K/mol
226.73 K	88.15 J/K/mol
229.94 K	88.77 J/K/mol
230 K	88.41 J/K/mol
233.13 K	89.33 J/K/mol
236.34 K	89.95 J/K/mol
239.53 K	90.87 J/K/mol
240 K	90.75 J/K/mol
242.69 K	91.56 J/K/mol
245.83 K	92.05 J/K/mol
248.99 K	92.61 J/K/mol
250 K	92.99 J/K/mol
252.14 K	93.33 J/K/mol
255.28 K	94.2 J/K/mol
258.37 K	94.93 J/K/mol
260 K	95.13 J/K/mol
261.31 K	95.4 J/K/mol
264.37 K	95.93 J/K/mol
267.41 K	96.5 J/K/mol
270 K	97.19 J/K/mol
270.48 K	97.19 J/K/mol
273.52 K	97.78 J/K/mol
276.54 K	98.45 J/K/mol
279.55 K	99 J/K/mol
280 K	99.17 J/K/mol
282.53 K	99.55 J/K/mol
285.49 K	100.2 J/K/mol
288.42 K	100.6 J/K/mol
290 K	101.1 J/K/mol
291.33 K	101.2 J/K/mol
294.21 K	101.7 J/K/mol
297.05 K	102.3 J/K/mol
299.79 K	102.8 J/K/mol
300 K	102.9 J/K/mol
302.76 K	103.4 J/K/mol
306.59 K	104.1 J/K/mol
310.93 K	105 J/K/mol
315.5 K	105.8 J/K/mol
320 K	106.5 J/K/mol and 106.3 J/K/mol
324.45 K	106.9 J/K/mol
340 K	109.4 J/K/mol
360 K	112.3 J/K/mol
373 K	113.9 J/K/mol
400 K	117.1 J/K/mol
450 K	122 J/K/mol
500 K	126 J/K/mol
550 K	129.4 J/K/mol
600 K	132.4 J/K/mol
650 K	135.2 J/K/mol
700 K	137.7 J/K/mol
750 K	140.1 J/K/mol
800 K	142.4 J/K/mol
850 K	144.6 J/K/mol
900 K	146.7 J/K/mol
950 K	148.7 J/K/mol
1000 K	150.8 J/K/mol
1050 K	152.8 J/K/mol
1100 K	154.7 J/K/mol
1150 K	156.6 J/K/mol
1200 K	158.5 J/K/mol
1250 K	160.4 J/K/mol
1300 K	162.3 J/K/mol
1350 K	164.2 J/K/mol
1400 K	166 J/K/mol
1450 K	167.9 J/K/mol
1500 K	169.7 J/K/mol
1550 K	171.5 J/K/mol
1600 K	173.4 J/K/mol
